In US20210346398A1, “COMBINATIONS WITH A C-19 STEROID FOR TREATING CANCERS” (priority 2018, published 2021):
Several values for one entry are separate records, joined by “and”; a condition that tells them apart may be missing. Identical values can stand only once.

Tests used:
[1] = tested on: ZR-75-1; test: WST-1 proliferation assay of ZR-75-1 cells; type: cell-based, human; settings: 4 days; for Single drug: absorbance at 450 nm as % of solvent control: OHT 10 or 20 μM, EN 10 μM, ETM 25 nM, FUL 1.0 μM, EXE 0.1 μM, Pab 50 nM, Doc 1.0 nM; for Combi: absorbance at 450 nm as % of solvent control, agent in combination with 4-OHT: agent at the single drug concentration plus 4-OHT; for SE1 (synergistic effect, A anti-cancer compound alone / A combination): agent plus 4-OHT versus agent alone
[2] = tested on: VCaP cells; test: WST-1 proliferation assay of VCaP cells; settings: for absorbance at 450 nm as % of solvent control, single compound: EN 10 μM, ABI 10 μM, 4-OHT concentration not stated; for Combi: absorbance at 450 nm as % of solvent control, agent in combination with 4-OHT: EN 10 μM or ABI 10 μM plus 4-OHT
[3] = tested on: T-47D cells; test: WST-1 proliferation assay of T-47D cells; type: cell-based, human; settings: for Single drug: absorbance at 450 nm as % of solvent control / Combi: absorbance at 450 nm as % of solvent control, agent in combination with 4-OHT / SE1 (synergistic effect, A anti-cancer compound alone / A combination): 4 days; for Single drug: absorbance at 450 nm as % of solvent control: OHT 10 or 20 μM, EN 10 μM, ETM 25 nM, FUL 1.0 μM, EXE 0.1 μM, Pab 50 nM, Doc 1.0 nM; for Combi: absorbance at 450 nm as % of solvent control, agent in combination with 4-OHT: agent at the single drug concentration plus 4-OHT; for SE1 (synergistic effect, A anti-cancer compound alone / A combination): agent plus 4-OHT versus agent alone; for growth inhibition by the combination with 4-OHT compared to the individual substances alone: FIG. 2, 7 days
Excerpt: The human breast cancer cell line T-47 D (ACC 739) was obtained from DSMZ as frozen cell pellet (Deutsche Sammlung von Mikroorganismen und Zellkulturen). Originally, these cells T-47D cell line was isolated by Keydar et al. (1979) from a pleural effusion obtained from a patient with an infiltrating ductal carcinoma of the breast T-47D is expressing the ER, PR and AR but lacking HER2/neu overexpression. Thus, T-47D may represent a cell line representative for the most prevalent breast cancer subtype.
T-47D were grown routinely in RPMI medium containing 10% fetal calf serum (FCS) and antibiotics in a humidified incubator at 36.5° C./90% humidity and 5% CO2. Cells were maintained in cell culture bottles for less than 20 passages before the individual experiments were conducted; cell suspensions were cultured 96 well plates and exposed at various concentrations of the individual agents; incubation time varied as indicated in the respective figures. WST-1 assay was used to monitor proliferation at 450 nm wavelength.
Growth was as compared to control using WST-1 assay (monitoring absorption at 450 nm wavelength as indicator for cell viability compared to growth control).
(§1) T-47D cells were grown routinely in RPMI medium containing 10% fetal calf serum (FCS) and antibiotics in a humidified incubator at 36.5° C./90% humidity and 5% CO2. […] WST-1 assay was used to monitor proliferation at 450 nm wavelength.

[4] = tested on: LNCaP cells; test: WST-1 proliferation assay of LNCaP cells; settings: for absorbance at 450 nm as % of solvent control, single compound: EN 10 μM, ABI 10 μM, 4-OHT concentration not stated; for Combi: absorbance at 450 nm as % of solvent control, agent in combination with 4-OHT: EN 10 μM or ABI 10 μM plus 4-OHT
[5] = tested on: MDAMB453; test: WST-1 proliferation assay of MDAMB453 cells; type: cell-based, human; settings: 4 days; for Single drug: absorbance at 450 nm as % of solvent control: OHT 10 or 20 μM, EN 5 μM, ETM 25 nM, FUL 1.0 μM, EXE 0.1 μM, Pab 50 nM, Doc 1.0 nM; for Combi: absorbance at 450 nm as % of solvent control, agent in combination with 4-OHT: agent at the single drug concentration plus 4-OHT; for SE1 (synergistic effect, A anti-cancer compound alone / A combination): agent plus 4-OHT versus agent alone
[6] = tested on: ZR-75-1N cells; test: WST-1 proliferation assay of ZR-75-1N cells; type: cell-based, human; settings: FIG. 3B, 4-OHT 20 μM plus Docetaxel 1, 2, 4, 8 nM, 5 days, average of 3 experiments
Procedure: as §1
Further the human breast cancer cell line ZR-75-1N was cultured as described above and subjected to 4-OHT at a concentration of 20 μM and Docextaxel (Doc) at various concentrations (1, 2, 4, and 8 nM)) as single drugs or in combination for 5 days.

[7] = FIG. 4A, 4-OHT 10 μM, Bicalutamide 5 or 10 μM, Enzalutamide 5 or 10 μM, day 5

| Structure (SMILES) | absorbance at 450 nm as % of solvent control, single compound [2] | Single drug: absorbance at 450 nm as % of solvent control [3] | absorbance at 450 nm as % of solvent control, single compound [4] | Single drug: absorbance at 450 nm as % of solvent control [1] | Combi: absorbance at 450 nm as % of solvent control, agent in combination with 4-OHT [1] | Combi: absorbance at 450 nm as % of solvent control, agent in combination with 4-OHT [3] | Single drug: absorbance at 450 nm as % of solvent control [5] | Combi: absorbance at 450 nm as % of solvent control, agent in combination with 4-OHT [5] | SE1 (synergistic effect, A anti-cancer compound alone / A combination) [1] | SE1 (synergistic effect, A anti-cancer compound alone / A combination) [3] | SE1 (synergistic effect, A anti-cancer compound alone / A combination) [5] | other results |
| --- | --- | --- | --- | --- | --- | --- | --- | --- | --- | --- | --- | --- |
| C[C@]12CC[C@H]3[C@@H](CCC4=C(O)C(=O)CC[C@@]43C)[C@@H]1CC[C@@H]2O [4-OHT, 4-hydroxytestosterone] | 33 % of solvent control | 50 % of solvent control | 78 % of solvent control |  |  |  |  |  |  |  |  | Single drug: absorbance at 450 nm as % of solvent control ([1]; listed as OH20): 71 % of solvent control; effect on cell growth as single compound ([2]; FIG. 4B): very sensitive; effect on cell growth as single compound [4, 7]: only a slight effect; effect on cell growth as single compound ([4]; FIG. 5, 4-OHT 10 μM, Abiraterone 10 μM, day 5): only a slight effect; Single drug: absorbance at 450 nm as % of solvent control ([5]; listed as OHT): 55 % of solvent control and 40 % of solvent control; Single drug: absorbance at 450 nm as % of solvent control ([5]; listed as OHT20): 76 % of solvent control |
| C[C@]12CC[C@H](O)CC1=CC[C@@H]1[C@@H]2CC[C@]2(C)C(c3cccnc3)=CC[C@@H]12 [Abiraterone] | 104 % of solvent control |  | 96 % of solvent control |  |  |  |  |  |  |  |  | Combi: absorbance at 450 nm as % of solvent control, agent in combination with 4-OHT [2]: 28.11 % of solvent control; Combi: absorbance at 450 nm as % of solvent control, agent in combination with 4-OHT [4]: 90.57 % of solvent control |
| CC(=O)O[C@@]12CO[C@@H]1C[C@H](O)[C@@]1(C)C(=O)[C@H](O)C3=C(C)[C@@H](OC(=O)[C@H](O)[C@@H](NC(=O)OC(C)(C)C)c4ccccc4)C[C@@](O)([C@@H](OC(=O)c4ccccc4)[C@H]21)C3(C)C [Docetaxel] |  | 31 % of solvent control |  | 72 % of solvent control | 43 % of solvent control | 20 % of solvent control | 103 % of solvent control | 89 % of solvent control |  |  |  | effect on proliferation of the combination with 4-OHT compared to the single drugs ([3]; FIG. 3A, Docetaxel 1, 2, 4, 8 nM, 5 days): synergistic effect; effect on proliferation of the combination with 4-OHT [6]: clear effect of the combination is seen at the lowest dose |
| CC/C(=C(\c1ccc(O)cc1)c1ccc(OCCNC)cc1)c1ccccc1 [Endoxifen] |  | 54 % of solvent control |  | 84 % of solvent control | 49 % of solvent control | 35 % of solvent control | 113 % of solvent control | 39 % of solvent control | 1.7 | 1.5 | 1.2 |  |
| CNC(=O)c1ccc(N2C(=S)N(c3ccc(C#N)c(C(F)(F)F)c3)C(=O)C2(C)C)cc1F [Enzalutamide] | 32 % of solvent control | 62 % of solvent control | 84 % of solvent control | 71 % of solvent control | 55 % of solvent control | 28 % of solvent control | 66 % of solvent control | 57 % of solvent control | 1.3 | 2.2 | 1.2 | Combi: absorbance at 450 nm as % of solvent control, agent in combination with 4-OHT [2]: 30 % of solvent control; effect on cell growth as single compound ([2]; FIG. 4B): very sensitive; effect on cell growth of the combination with 4-OHT ([2]; FIG. 4B): synergistic effect; Combi: absorbance at 450 nm as % of solvent control, agent in combination with 4-OHT [4]: 58 % of solvent control; effect on cell growth of the combination with 4-OHT ([4]; FIG. 4A, 4-OHT 10 μM plus Bicalutamide 10 μM or Enzalutamide 10 μM, day 5): growth inhibition with a significant synergistic effect; effect on cell growth as single compound [4, 7]: not affected |
| C=C1C[C@@H]2[C@H](CC[C@]3(C)C(=O)CC[C@@H]23)[C@@]2(C)C=CC(=O)C=C12 [Exemestane] |  | 70 % of solvent control |  | 81 % of solvent control | 57 % of solvent control | 47 % of solvent control | 118 % of solvent control | 33 % of solvent control |  |  |  | growth inhibition by the combination with 4-OHT compared to the individual substances alone [3]: significant growth inhibition |
| C[C@]12CC[C@@H]3c4ccc(O)cc4C[C@@H](CCCCCCCCC[S+]([O-])CCCC(F)(F)C(F)(F)F)[C@H]3[C@@H]1CC[C@@H]2O (stereo partly shown) [Fulvestrant] |  | 38 % of solvent control |  | 90 % of solvent control | 43 % of solvent control | 22 % of solvent control | 80 % of solvent control | 27 % of solvent control |  |  |  | growth inhibition by the combination with 4-OHT compared to the individual substances alone [3]: significant growth inhibition |
| CC(=O)c1c(C)c2cnc(Nc3ccc(N4CCNCC4)cn3)nc2n(C2CCCC2)c1=O [Palbociclib] |  | 80 % of solvent control |  | 91 % of solvent control | 71 % of solvent control | 33 % of solvent control | 112 % of solvent control | 120 % of solvent control | 1.3 | 2.4 | 0.9 |  |
